Measured values from patent US20250263408A1 (Uniquest Pty Ltd, priority 2022, published 2025).

Legend:
Ba/F3-Syk cells = biological target: T1, Ba/F3-Syk cells (Homo sapiens, UniProt P43405); experiment: Ba/F3 Proliferation Assay, Ba/F3-Syk cells (Resazurin); type: cell-based; details: 48-hour incubation
T1 construct: fused on or other part: Possible but unprinted fusion partner: TEL (ETV6), the usual partner for Ba/F3 lines transformed by Syk; Nothing on a partner is printed
Protocol: (§1) Ba/F3-Syk and Ba/F3-WT (wild type) cells were maintained at ≤1×10^6 cell/mL in RPMI (Life Technologies) with 10% FBS at 37° C. and 5% CO2 for a maximum of four weeks. Ba/F3-WT additionally contained 2 ng/mL mIL-3 (R&D Systems) to induce cellular growth. Cells were counted and dispensed at 5000 cells/well using a Multidrop Liquid Dispenser in a volume of 45 μL into black 384-well TC treated plates (Greiner) and incubated for four hours in complete media (+mIL-3 for Ba/F3-WT). Compounds were serially diluted in 100% DMSO, prior to an intermediate dilution in RPMI media. 5 μL of compound (0.4% final DMSO) was added to the cells, followed by a 48-hour incubation period. 5 μL of Resazurin (60 μM final) was then added and cells were incubated at 37° C. for three hours, before fluorescence (λex530/λem585) was measured using an Ensight Multimode Plate Reader (Perkin Elmer).

[1] = tested on: Ba/F3-WT (wild type) cells; experiment: Ba/F3 Proliferation Assay, Ba/F3-WT (wild type) cells with mIL-3 (Resazurin); type: cell-based; details: Ba/F3-WT cells +mIL-3, 48-hour incubation
Protocol: as §1

Compound	EC50 (Ba/F3-Syk cells) [nM]	EC50 [1] [nM]	EC50 ([1]; Mus musculus, BaF3, 48 h) [nM]
5-{[(2R)-6,6-dimethylmorpholin-2-yllmethoxy}-7-[1-(3-methyloxolan-3-yl)-1H-pyrazol-4-yl]-1,6-naphthyridine [Compound 10.13]	90.9	3210	–
7-(1-methyl-1H-pyrrol~3-yl)-5-{[(2S)-2-methylmorpholin-2-yl]methoxy}-1,6-naphthyridine [Compound 10.7]	274	1200	–
7-(1-tert-butyl-1H-pyrazol-4-yl)-5-{[(2R)-2-ethylmorpholin-2-yl]methoxy}-1,6-naphthyridine [Compound 10.15]	92.2	1680	–
Cn1cc(-c2cc3ncccc3c(OC[C@@H]3CN[C@H]4CCC[C@H]4O3)n2)cn1 (racemic) [Compound 2.53, 5-{[rel-(2R,4aR,7aS)-octahydrocyclopenta[b][1,4]oxazin-2-yl]methoxy}-7-(1-methyl-1H-pyrazol-4-yl)-1,6-naphthyridine]	129	–	2560
C[C@@H]1O[C@@H](COc2nc(-c3cnn(C(C)(C)C)c3)cc3ncccc23)CN[C@@H]1C (racemic) [Compound 2.80, 7-(1-tert-butyl-1H-pyrazol-4-yl)-5-{[rel-(2S,5S,6R)-5,6-dimethylmorpholin-2-yl]methoxy}-1,6-naphthyridine]	36	–	1600
Cn1cc(-c2cc3ncccc3c(OC[C@@H]3CN[C@@H]4CCC[C@@H]4O3)n2)cn1 (relative stereo) [Compound 2.54, 5-{[rel-(2S,4aR,7aS)-octahydrocyclopenta[b][1,4]oxazin-2-yl]methoxy}-7-(1-methyl-1H-pyrazol-4-yl)-1,6-naphthyridine]	288	–	1580
Cn1ccc(-c2cc3ncccc3c(OC[C@@H]3CN[C@@H]4C[C@@H]4O3)n2)c1 (relative stereo) [Compound 2.71, 7-(1-methyl-1H-pyrrol-3-yl)-5-{[(rel-1S,3S,6R)-2-oxa-5-azabicyclo[4.1.0]heptan-3-yl]methoxy}-1,6-naphthyridine]	1330	–	> 10000
C[C@@H]1O[C@H](COc2nc(-c3cnn(C(C)(C)C)c3)cc3ncccc23)CN[C@@H]1C (relative stereo) [Compound 2.81, 7-(1-tert-butyl-1H-pyrazol-4-yl)-5-{[rel-(2S,5R,6S)-5,6-dimethylmorpholin-2-yl]methoxy}-1,6-naphthyridine]	73.2	–	2070
CC(C)(C)n1cc(-c2cc3ncccc3c(OC[C@@H]3CN[C@H]4CCC[C@H]4O3)n2)cn1 (relative stereo) [Compound 2.85, 5-{[rel-(2S,4aS,7aR)-octahydrocyclopenta[b][1,4]oxazin-2-yl]methoxy}-7-(1-tert-butyl-1H-pyrazol-4-yl)-1,6-naphthyridine]	59.3	–	–
CC(C)(C)n1cc(-c2cc3ncccc3c(O[C@@H]3CC[C@@H]4NCCO[C@@H]43)n2)cn1 (relative stereo) [Compound 2.90, 5-[rel-(4aS,7R,7aS)-octahydrocyclopenta[b][1,4]oxazin-7-yloxy]-7-(1-tert-butyl-1H-pyrazol-4-yl)-1,6-naphthyridine]	54.6	–	> 1000
CC(C)(C)n1cc(-c2cc3ncccc3c(O[C@H]3CC[C@@H]4NCCO[C@@H]43)n2)cn1 (relative stereo) [Compound 2.91, 5-[rel-(4aS,7S,7aS)-octahydrocyclopenta[b][1,4]oxazin-7-yloxy]-7-(1-tert-butyl-1H-pyrazol-4-yl)-1,6-naphthyridine]	51.8	–	1040
CC(C)(C)n1cc(-c2cc3ncccc3c(OC[C@H]3OC[C@@H]4C[C@H]3N4)n2)cn1 (relative stereo) [Compound 2.97, 7-(1-tert-butyl-1H-pyrazol-4-yl)-5-{[rel-(1R,2S,5S)-3-oxa-6-azabicyclo[3.1.1]heptan-2-yl]methoxy}-1,6-naphthyridine]	347	4240	–
CC(C)(C)n1cc(-c2cc3ncccc3c(OC[C@H]3O[C@H]4CCN[C@@H]3C4)n2)cn1 (single isomer, unassigned) [Compound 13.11]	1940	–	> 10000
CC(C)(C)n1cc(-c2cc3ncccc3c(OC[C@H]3O[C@H]4CCN[C@@H]3C4)n2)cn1 (single isomer, unassigned) [Compound 13.12]	74.4	> 5000	–
CC(C)(C)n1cc(-c2cc3ncccc3c(OC[C@@H]3CN[C@H]4CCC[C@H]4O3)n2)cn1 (stereo in doubt) [Compound 2.94, 5-{[(2S,4aS,7aR)-octahydrocyclopenta[b][1,4]oxazin-2-yl]methoxy}-7-(1-tert-butyl-1H-pyrazol-4-yl)-1,6-naphthyridine]	145	–	–
CC(C)(C)n1cc(-c2cc3ncccc3c(OC[C@H]3CN[C@@H]4CCC[C@@H]4O3)n2)cn1 (stereo in doubt) [Compound 2.95, 5-{[(2R,4aR,7aS)-octahydrocyclopenta[b][1,4]oxazin-2-yl]methoxy}-7-(1-tert-butyl-1H-pyrazol-4-yl)-1,6-naphthyridine]	22.1	–	1850
Cc1ccnc2cc(-c3cnn(C(C)C)c3)cc(OC[C@@H]3CNCC(C)(C)O3)c12 (stereo in doubt) [Compound 14.7, 5-[(6,6-dimethylmorpholin-2-yl)methoxy]-4-methyl-7-[1-(propan-2-yl)-1H-pyrazol-4-yl]quinoline]	2.4	–	930
C=Cc1cnc2cc(-c3cnn(C(C)(C)C)c3)nc(OC[C@@H]3CNCC(C)(C)O3)c2c1 (stereo in doubt) [Compound 14.8, 7-(1-tert-butyl-1H-pyrazol-4-yl)-5-[(6,6-dimethylmorpholin-2-yl)methoxy]-3-ethenyl-1,6-naphthyridine]	1170	–	> 10000
CC(C)(C)n1cc(-c2cc(OC[C@@H]3CNCCO3)c3cccnc3c2)cn1 [Compound 1, 7-(1-tert-butyl-1H-pyrazol-4-yl)-5-{[(2S)-morpholin-2-yl]methoxy}quinoline]	44.2	–	4670
Cn1cc(-c2cc(OC[C@@H]3CNCCO3)c3cccnc3c2)cn1 [Compound 2, 7-(1-methyl-1H-pyrazol-4-yl)-5-{[(2S)-morpholin-2-yl]methoxy}quinoline]	166	–	2430
Cc1noc(C)c1-c1cc2ncccc2c(OC[C@@H]2CNCCO2)n1 [Compound 2.14, 7-(3,5-dimethyl-1,2-oxazol-4-yl)-5-{[(2S)-morpholin-2-yl]methoxy}-1,6-naphthyridine]	3620	–	4830
c1cnc2cc(-c3ccn[nH]3)nc(OC[C@@H]3CNCCO3)c2c1 [Compound 2.28, 5-{[(2S)-morpholin-2-yl]methoxy}-7-(1H-pyrazol-5-yl)-1,6-naphthyridine]	734	–	> 10000
c1cnc2cc(-c3cncs3)nc(OC[C@@H]3CNCCO3)c2c1 [Compound 2.29, 5-{[(2S)-morpholin-2-yl]methoxy}-7-(1,3-thiazol-5-yl)-1,6-naphthyridine]	1020	–	> 10000
Cc1ncc(-c2cc3ncccc3c(OC[C@@H]3CNCCO3)n2)s1 [Compound 2.30, 7-(2-methyl-1,3-thiazol-5-yl)-5-{[(2S)-morpholin-2-yl]methoxy}-1,6-naphthyridine]	206	–	6970
Cn1ccc(-c2cc3ncccc3c(OC[C@@H]3CNCCO3)n2)n1 [Compound 2.31, 7-(1-methyl-1H-pyrazol-3-yl)-5-{[(2S)-morpholin-2-yl]methoxy}-1,6-naphthyridine]	1740	–	> 10000
